We go through 19 compounds from ChEMBL document CHEMBL1201862, “PubChem BioAssay data set” (2004).

Activity calls are given as the source filed them.

Experiment [1] in a line: Trypanosoma cruzi growth suppression in host cells – NIH3T3 host cells, beta-gal luminescence, confirmation (AID 2044).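 Also: intracellular parasites grown in NIH/3T3 mouse fibroblasts as host cells; luminescent beta-galactosidase reporter signal from transgenic T. cruzi replicating inside host cells; inhibitors lower the luminescence signal.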 Format: functional, cell-based.
The nature of experiment [2]: NIH3T3 cell viability loss – ATP luminescence, mouse fibroblasts, counter-screen, dose response (AID 2010).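 Also: cells exposed to compound for about 90 hours before reading.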 The class given is functional, cell-based.
Experiment [3] deals with T1, Rac GTPase-activating protein 1 (Homo sapiens, UniProt Q9H0H5).
T1 sequence (Q9H0H5 whole entry): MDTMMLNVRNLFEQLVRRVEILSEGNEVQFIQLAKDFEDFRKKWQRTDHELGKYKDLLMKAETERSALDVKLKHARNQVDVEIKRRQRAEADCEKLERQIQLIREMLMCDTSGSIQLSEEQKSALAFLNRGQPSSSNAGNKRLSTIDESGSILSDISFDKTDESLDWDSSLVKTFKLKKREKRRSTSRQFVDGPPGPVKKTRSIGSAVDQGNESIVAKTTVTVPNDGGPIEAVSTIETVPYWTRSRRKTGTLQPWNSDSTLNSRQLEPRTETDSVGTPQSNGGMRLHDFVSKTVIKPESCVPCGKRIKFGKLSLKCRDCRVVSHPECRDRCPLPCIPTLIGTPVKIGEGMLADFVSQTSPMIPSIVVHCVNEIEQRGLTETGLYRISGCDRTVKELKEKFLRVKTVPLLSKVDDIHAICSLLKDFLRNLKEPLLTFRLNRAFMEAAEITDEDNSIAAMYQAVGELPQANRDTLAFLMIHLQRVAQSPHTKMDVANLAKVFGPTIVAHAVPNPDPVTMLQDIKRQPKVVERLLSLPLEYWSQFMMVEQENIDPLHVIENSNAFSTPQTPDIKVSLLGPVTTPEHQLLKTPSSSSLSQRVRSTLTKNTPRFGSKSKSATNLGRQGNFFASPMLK
In words: blockers of MgcRacGAP-driven Rac1 GTP hydrolysis – biochemical, ADP Hunter fluorescence, primary and confirmatory, confirmation (AID 624330). Format: functional.

Experiment [4] has as its target T2, DNA repair protein RAD52 homolog (Homo sapiens, UniProt P43351).
T2 sequence (P43351 whole entry): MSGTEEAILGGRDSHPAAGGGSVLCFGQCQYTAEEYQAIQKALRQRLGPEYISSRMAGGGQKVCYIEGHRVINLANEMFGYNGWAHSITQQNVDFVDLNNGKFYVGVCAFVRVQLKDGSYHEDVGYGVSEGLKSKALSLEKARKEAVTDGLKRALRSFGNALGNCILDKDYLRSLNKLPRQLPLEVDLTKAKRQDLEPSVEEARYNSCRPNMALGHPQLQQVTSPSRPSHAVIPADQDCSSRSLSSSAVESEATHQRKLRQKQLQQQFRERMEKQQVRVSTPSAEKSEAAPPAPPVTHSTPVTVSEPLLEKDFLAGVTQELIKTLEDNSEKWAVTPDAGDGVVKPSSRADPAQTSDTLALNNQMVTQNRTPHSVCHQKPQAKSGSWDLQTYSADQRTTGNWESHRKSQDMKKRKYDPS
The class given is functional, biochemical.

Experiment [5] deals with T3, Histone-lysine N-methyltransferase NSD2 (Homo sapiens, UniProt O96028).
T3 sequence (O96028 whole entry): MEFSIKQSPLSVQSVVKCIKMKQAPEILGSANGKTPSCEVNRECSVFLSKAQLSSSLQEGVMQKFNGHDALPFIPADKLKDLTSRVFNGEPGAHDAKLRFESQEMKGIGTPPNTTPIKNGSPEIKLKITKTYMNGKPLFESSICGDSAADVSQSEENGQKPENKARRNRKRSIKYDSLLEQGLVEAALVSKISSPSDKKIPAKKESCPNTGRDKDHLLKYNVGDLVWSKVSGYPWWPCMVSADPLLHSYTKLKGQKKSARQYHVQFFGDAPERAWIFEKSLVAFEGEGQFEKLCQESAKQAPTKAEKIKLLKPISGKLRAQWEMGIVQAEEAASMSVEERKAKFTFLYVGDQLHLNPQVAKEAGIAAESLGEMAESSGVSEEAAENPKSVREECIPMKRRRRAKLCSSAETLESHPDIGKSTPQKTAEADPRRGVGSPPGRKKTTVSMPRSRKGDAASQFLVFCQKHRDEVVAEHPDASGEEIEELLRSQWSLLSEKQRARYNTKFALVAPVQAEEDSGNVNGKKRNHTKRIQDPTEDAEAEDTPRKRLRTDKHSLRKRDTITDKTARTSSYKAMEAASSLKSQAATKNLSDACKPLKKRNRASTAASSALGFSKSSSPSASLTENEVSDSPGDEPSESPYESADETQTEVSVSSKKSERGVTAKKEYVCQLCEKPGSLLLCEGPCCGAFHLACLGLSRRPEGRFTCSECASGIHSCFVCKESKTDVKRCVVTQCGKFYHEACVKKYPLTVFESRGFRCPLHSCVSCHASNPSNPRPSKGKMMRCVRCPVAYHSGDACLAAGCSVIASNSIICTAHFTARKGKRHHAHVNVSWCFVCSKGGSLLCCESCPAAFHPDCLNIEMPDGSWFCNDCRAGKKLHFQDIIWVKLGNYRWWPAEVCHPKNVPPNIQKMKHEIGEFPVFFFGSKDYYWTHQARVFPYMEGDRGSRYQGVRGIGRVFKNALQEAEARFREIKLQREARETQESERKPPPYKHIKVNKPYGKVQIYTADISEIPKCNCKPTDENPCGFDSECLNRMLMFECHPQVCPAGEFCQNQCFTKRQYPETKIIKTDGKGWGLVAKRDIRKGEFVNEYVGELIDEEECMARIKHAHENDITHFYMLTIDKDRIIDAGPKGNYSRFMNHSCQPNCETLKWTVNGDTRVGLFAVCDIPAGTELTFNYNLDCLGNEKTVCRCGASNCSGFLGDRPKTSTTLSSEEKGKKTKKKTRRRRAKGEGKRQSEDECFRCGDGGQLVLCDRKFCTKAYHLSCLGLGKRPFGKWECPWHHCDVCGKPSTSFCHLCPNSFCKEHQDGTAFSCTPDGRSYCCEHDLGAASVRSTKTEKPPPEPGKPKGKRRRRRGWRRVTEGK
The class given is biochemical.

The nature of experiment [6]: viability of uninfected HEp-2 cells – cell-based, HTS, cytotoxicity control for RSV inhibitor project, dose response (AID 2410). The class given is functional. As to conditions: human respiratory syncytial virus.
Experiment [7] in a line: Luminescence Cell-Based Dose Confirmation HTS to Identify Activators of 5'UTR Stem-Loop Driven Alpha-Synuclein mRNA Translation in H4 Neuroglioblastoma Cells. [Related pubchem assays: 1829 (Project Summary), 1814 (Primary HTS)]. Format: functional.
Experiment [8] can be described thus: Luminescence Cell-Based Dose Response HTS to Identify Activators of Luciferase Translation or Activity in H4 […] Cells. [Related pubchem assays: 1829 (Project Summary), 1814 (Primary HTS)]. Format: functional.
A further experiment relates to H4. In words: Luminescence Cell-Based Dose Response HTS to Identify Activators of 5'UTR Stem-Loop Driven Prion Protein mRNA Translation in H4 Neuroglioblastoma Cells. [Related pubchem assays: 1829 (Project Summary), 1814 (Primary HTS)]. Format: functional. As to conditions: Homo sapiens.
The target of the next experiment is Genome polyprotein (dengue virus type 2, UniProt P29990). In words: flavivirus cap methylation enzyme inhibition – biochemical, confirmation dose response, primary screen (AID 588689). The class given is functional.
Sequence of Genome polyprotein (P29990 2492-3391 limits assumed): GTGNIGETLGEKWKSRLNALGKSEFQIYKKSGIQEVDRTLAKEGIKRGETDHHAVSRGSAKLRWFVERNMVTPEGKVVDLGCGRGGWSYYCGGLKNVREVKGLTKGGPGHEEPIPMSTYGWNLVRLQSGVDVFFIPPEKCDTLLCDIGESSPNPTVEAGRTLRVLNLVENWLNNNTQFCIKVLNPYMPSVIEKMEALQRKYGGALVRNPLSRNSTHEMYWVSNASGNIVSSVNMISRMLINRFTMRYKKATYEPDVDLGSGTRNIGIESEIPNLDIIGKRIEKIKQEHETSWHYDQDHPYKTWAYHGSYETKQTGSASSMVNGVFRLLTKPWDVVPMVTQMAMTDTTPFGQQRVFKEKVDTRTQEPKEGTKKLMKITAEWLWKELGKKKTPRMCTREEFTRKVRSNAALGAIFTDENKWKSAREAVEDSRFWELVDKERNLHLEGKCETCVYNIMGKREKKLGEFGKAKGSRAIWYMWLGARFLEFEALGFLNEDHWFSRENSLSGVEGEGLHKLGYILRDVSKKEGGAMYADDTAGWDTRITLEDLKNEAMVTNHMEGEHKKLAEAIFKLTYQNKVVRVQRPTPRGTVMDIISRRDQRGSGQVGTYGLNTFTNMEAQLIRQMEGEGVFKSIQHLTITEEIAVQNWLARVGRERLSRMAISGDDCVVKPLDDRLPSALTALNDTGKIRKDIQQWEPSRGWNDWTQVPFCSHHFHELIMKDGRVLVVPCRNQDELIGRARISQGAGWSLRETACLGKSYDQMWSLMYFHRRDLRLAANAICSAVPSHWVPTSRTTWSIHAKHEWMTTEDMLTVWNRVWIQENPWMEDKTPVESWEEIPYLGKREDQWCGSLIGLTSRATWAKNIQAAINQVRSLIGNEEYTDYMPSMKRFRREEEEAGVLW
The nature of experiment [9]: A Cell Based Secondary Assay To Explore Cytotoxicity of Compounds that Sensitize Mycobacterium Tuberculosis to Beta-Lactam Antibiotics. The class given is functional.
Experiment [10] concerns the target T4, Heat shock factor protein 1 (Mus musculus, UniProt P38532).
T4 sequence (P38532 whole entry): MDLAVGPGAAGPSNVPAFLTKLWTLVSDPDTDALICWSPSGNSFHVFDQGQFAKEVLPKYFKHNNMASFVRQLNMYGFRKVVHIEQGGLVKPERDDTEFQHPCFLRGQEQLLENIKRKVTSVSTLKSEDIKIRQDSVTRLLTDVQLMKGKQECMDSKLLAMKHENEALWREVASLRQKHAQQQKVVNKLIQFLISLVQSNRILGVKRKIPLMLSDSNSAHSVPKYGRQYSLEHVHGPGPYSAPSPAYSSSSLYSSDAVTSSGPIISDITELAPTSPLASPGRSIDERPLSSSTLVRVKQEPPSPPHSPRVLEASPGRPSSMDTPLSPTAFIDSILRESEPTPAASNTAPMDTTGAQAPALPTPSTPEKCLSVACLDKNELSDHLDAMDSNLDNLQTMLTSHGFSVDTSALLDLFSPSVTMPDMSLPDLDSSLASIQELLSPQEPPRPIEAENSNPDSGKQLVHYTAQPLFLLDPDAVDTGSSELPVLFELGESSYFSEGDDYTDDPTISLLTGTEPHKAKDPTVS
In words: decrease of HSF1-responsive luciferase luminescence – cell-based, NIH3T3, dose retest, confirmation (AID 2382).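 Also: NIH3T3 fibroblasts with HSF1-driven luciferase reporter stressed by proteasome inhibitor MG132; luminescence from HSF1-driven luciferase expression after 8 hours of MG132 stress.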 Format: functional.

Experiment [11] in a line: viability of PTEN-deleted HCT116 cells – cell-based, HCT116 PTEN knockout, dose response (AID 1047).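 Also: HCT116 colon tumor cells with PTEN knocked out; cells exposed to compound for 60 hours before readout; potency for loss of cell viability measured by luminescence.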 Format: functional.
The next experiment deals with Prothrombin (Homo sapiens, UniProt P00734). The experiment in a line: Thrombin 1536 HTS Dose Response Confirmation. [Related pubchem assays: 1046 (Thrombin 1536 HTS; hits were confirmed in this assay)]. Format: functional.
Experiment [12] can be described thus: viability of HCT116 lacking mutant beta-catenin – cell-based, human colon tumor, dose response (AID 1045).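 Also: HCT116 colon tumor cells with beta catenin knocked out; cells exposed to compound for 60 hours.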 The class given is functional.
For the next experiment, the target named is Kallikrein-7 (Homo sapiens, UniProt P49862). The experiment in a line: Fluorescence Intensity-based biochemical primary high throughput dose response assay to identify activators of kallikrein-7 (K7) zymogen.
Sequence of Kallikrein-7 (P49862 whole entry): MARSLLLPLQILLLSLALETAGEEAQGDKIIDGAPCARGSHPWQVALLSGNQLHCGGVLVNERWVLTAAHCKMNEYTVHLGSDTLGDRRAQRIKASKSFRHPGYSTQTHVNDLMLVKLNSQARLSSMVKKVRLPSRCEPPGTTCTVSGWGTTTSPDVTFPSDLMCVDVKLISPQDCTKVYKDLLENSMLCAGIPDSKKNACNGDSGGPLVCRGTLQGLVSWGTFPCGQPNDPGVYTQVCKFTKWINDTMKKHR
Experiment [13] is described as follows: NIH-3T3 fibroblast cytotoxicity, dose response, cytotoxicity control, cell-based, fluorescence, Alamar Blue, secondary assay (AID 2327).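 Also: NIH-3T3 mouse fibroblasts cultured with fluconazole at 8 µg/mL.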 The class given is functional.
A short description of experiment [14]: fluconazole-exposed Candida albicans growth modulators – fluorescence, retest, confirmation (AID 2467). The class given is functional, cell-based.
Experiment [15] is described as follows: Luminescence Cell-Based Dose Retest to Confirm Inhibitors of Cancer Stem Cells. [Related pubchem assays (depositor defined):AID2717, AID2721]. Format: functional. As to conditions: Homo sapiens.
The nature of experiment [16]: general mammalian cell viability loss – inhibitor set, cherry-pick, set 2, cytotoxicity control for miR-122 modulator project, dose response (AID 720697). Format: functional, cell-based.

Take `C[n+]1ccc(/C=C/c2ccccc2O)c2ccccc21`: the results for the EC50 in experiment [1] and in experiment [2] were 0.753 µM (active) and > 60 µM (not active), respectively. The IC50 in [3] is 178 µM (active). The figures for the AC50 in experiment [4] and in experiment [5] were 19.1 µM (active) and > 20 µM (inactive), respectively.
With `O=C(NC(=S)Nc1ccccc1C(=O)O)c1ccc(-c2ccc(Br)cc2)o1`, the CC50 in [6] is 19 µM (active). Besides, the EC50 in experiment [7] was 71.2 µM (active); in experiment [8], 12.5 µM (active); in the experiment on H4 it was 22.1 µM (active); in [1], 2.13 µM (active); in experiment [2] it was > 60 µM (not active). Also, the IC50 at Genome polyprotein is 42.2 µM (active); in the experiment “cells”, 6.21 µM (active).
For the compound `C[C@H]1C=CC(=O)O[C@H]1c1ccccc1`, the CC50 in experiment [9] was 22.9 µM (active).
As for `Cc1cc(-n2c(C)c3c(C)nnc(C)c3c2C)ccc1N`, the EC50 in [10] is > 195 µM (not active). Besides, the AC50 in experiment [4] is 8.66 µM (active).
In the case of `Cc1nn2c(NCCCN(C)C)c3c(nc2c1-c1ccccc1)CCC3`, the EC50 in experiment [1] is 0.625 µM (active); in experiment [11], 15.9 µM (active); in experiment [2] it was > 60 µM (not active); in experiment [12] it was 15.9 µM (active). Further, the IC50 against Prothrombin is reported as > 50 µM (not active).
With `COc1ccc(N(C(=O)c2ccco2)S(=O)(=O)c2ccc(F)cc2)cc1`, the IC50 at Prothrombin is 17.5 µM (active).
Still for that read-out and setting: the result for `C=CCN(C(=O)Nc1ccc2c(c1)nc(C)n2C)c1ccccc1` reads > 50 µM (not active).
As for `COc1ccc(-c2ccc3nnc(SCC(=O)N4CCCC4)n3n2)cc1`, the EC50 at Kallikrein-7 was > 69.5 µM (inactive).
On to `CN1CCN(CCCNCc2cn(CCC#N)c3ccccc23)CC1`, for which the IC50 in experiment [3] is 64.3 µM (active). In experiment [4], the AC50 is 4.32 µM (active).
With `COC(=O)c1c(C)n(-c2ccccc2)c2ccc(O)cc12`, the EC50 in experiment [13] is 2.59 µM (inconclusive); in [14] it was > 38 µM (not active). Further, the CC50 in experiment [9] was > 40 µM (active).
`OCCCNc1cc(-c2ccccc2)nc2cc(-c3ccc(F)cc3)nn12`: the CC50 in [6] is > 50 µM (active). Besides, in experiment [15], the AC50 was 6.05 µM (active). Further, the IC50 in the experiment “cells” is 22.4 µM (active).
On to `CCCCCC(=O)Nc1cccc(C2=NOC3(C2)C[C@@H](C(N)=O)N(C(=O)CC(c2ccccc2)c2ccccc2)C3)c1` (some centres not stated), for which the CC50 in [9] was > 40 µM (active). Besides, the figures for the EC50 in experiment [1] and in [2] were 0.396 µM (active) and > 60 µM (not active), respectively.
On to `COC(=O)c1ccc(C2C(C#N)=C(C)N=C3CC(C)(C)CC(O)=C32)cc1` (configuration not stated), for which the EC50 on Kallikrein-7 is 20.8 µM (inactive).
On to `CCC(C)NCCOc1cc(C)cc(C)c1C` (configuration not stated), for which, at Prothrombin, the 50% inhibitory concentration (IC50) is > 50 µM (not active).
Turning to `N#Cc1c(NC(=O)COC(=O)c2nccnc2N)sc2c1CCCC2`, at Kallikrein-7, the EC50 is > 69.5 µM (inactive).
As to `c1ccc(CCCNCCCn2cnc3c(OCc4ccccc4)ncnc32)cc1`, the AC50 in [16] is 7.5 µM (active).
For `COc1ccc(/C=N/Nc2nc(-c3ccc(C)cc3)c(NC(C)=O)s2)cc1`, the CC50 in [9] is > 40 µM (active).
Turning to `CO[C@@H]1CN(C)C(=O)c2cc(NC(=O)c3cccc(Oc4ccccc4)c3)ccc2OC[C@H](C)NC[C@@H]1C`, the AC50 in [16] is 15.1 µM (active).
As to `CCOc1cc(-c2nccc3cc(OC)c(OC)cc23)cc(OCC)c1OCC` [OCTAVERINE], the AC50 in [16] is 1.89 µM (active).
